Values after ≈ are worked out from the molar mass of the structure shown. Active and inactive are the calls of the source. The calls are words filed in the database; no cut-off is given here.

The first test concerns Nakaseomyces glabratus. The experiment in a line: Binding affinity to Candida glabrata DHFR at 1 mM incubated for 2 hrs by crystallographic analysis in presence of 1 mM NADPH.
`CCc1nc(N)nc(N)c1C#CCc1cc(OC)cc(-c2ccc3c(c2)OCCO3)c1`: the result was Active.

`CCc1nc(N)nc(N)c1C#CC(C)c1cc(OC)cc(N2CCOCC2)c1` (configuration not stated): the result was Active.

For `COc1cc(-c2ccc(C)cc2)cc(C(C)C#Cc2c(C)nc(N)nc2N)c1` (configuration not stated), the outcome was Active.

For the compound `CCc1nc(N)nc(N)c1C#CC(C)c1cc(OC)cc(-c2ccncc2)c1` (configuration not stated), the outcome was Active.

For another test, the target named is T1, Dihydrofolate reductase (Candida albicans) (UniProt P22906).
T1 sequence (whole entry): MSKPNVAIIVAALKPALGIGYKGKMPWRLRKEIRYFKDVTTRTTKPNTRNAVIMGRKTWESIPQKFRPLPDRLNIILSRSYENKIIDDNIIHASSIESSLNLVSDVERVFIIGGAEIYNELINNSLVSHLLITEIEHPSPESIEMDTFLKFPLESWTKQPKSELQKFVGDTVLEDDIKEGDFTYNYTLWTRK
The experiment in a line: Binding affinity to Candida albicans DHFR at 1 mM incubated for 2 hrs by crystallographic analysis in presence of 1 mM NADPH.
With `CCc1nc(N)nc(N)c1C#CCc1cc(OC)cc(-c2ccc3c(c2)OCCO3)c1`, the result was Active.

For `COc1cc(-c2ccc(C)cc2)cc(C(C)C#Cc2c(C)nc(N)nc2N)c1` (configuration not stated), the outcome was Active.

`CCc1nc(N)nc(N)c1C#CC(C)c1cc(OC)cc(-c2ccncc2)c1` (configuration not stated): the result was Active.

Tested on in a further test: not listed separately
Description: Selectivity ratio of IC50 for human DHFR to Candida glabrata DHFR.
In the case of `CCc1nc(N)nc(N)c1C#CC(C)c1cc(OC)cc(-c2cccc3cnccc23)c1` (configuration not stated), the Ratio IC50 came out at 4.1.

For `CCc1nc(N)nc(N)c1C#CCc1cc(OC)cc(-c2ccc3c(c2)OCCO3)c1`, the Ratio IC50 amounted to 7.4.

Take `CCc1nc(N)nc(N)c1C#CC(C)c1cc(OC)cc(N2CCOCC2)c1` (configuration not stated): the Ratio IC50 came out at 11.

With `COc1cc(-c2ccncc2)cc(C(C)C#Cc2c(C)nc(N)nc2N)c1` (configuration not stated), the Ratio IC50 turned out to be 15.

Turning to `COc1cc(C(C)C#Cc2c(C)nc(N)nc2N)cc(N2CCOCC2)c1` (configuration not stated), the Ratio IC50 stood at 20.

Take `CCc1nc(N)nc(N)c1C#CC(C)c1cc(OC)cc(-c2ccc3c(c2)OCCO3)c1` (configuration not stated): the Ratio IC50 was determined as 14.

Turning to `COc1cc(C(C)(C)C#Cc2c(C)nc(N)nc2N)cc(OC)c1OC`, the Ratio IC50 stood at 26.

`CCc1nc(N)nc(N)c1C#CCc1cc(OC)cc(-c2cccc3cnccc23)c1`: the Ratio IC50 was found to be 3.8.

As for `CCc1nc(N)nc(N)c1C#CC(C)c1cc(OC)cc(-c2ccncc2)c1` (configuration not stated), the Ratio IC50 was found to be 15.

In a further test the target is T2, Dihydrofolate reductase (Homo sapiens, UniProt P00374).
T2 sequence (P00374 whole entry): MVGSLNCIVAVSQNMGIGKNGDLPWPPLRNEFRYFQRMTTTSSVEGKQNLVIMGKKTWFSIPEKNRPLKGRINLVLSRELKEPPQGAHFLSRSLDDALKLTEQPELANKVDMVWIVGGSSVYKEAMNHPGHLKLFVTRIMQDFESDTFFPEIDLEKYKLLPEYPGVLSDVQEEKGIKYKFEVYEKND
The experiment in a line: Inhibition of human DHFR.
The IC50 is the concentration needed to halve the response being measured. A low value points to higher potency. Compound `CCc1nc(N)nc(N)c1C#CC(C)c1cc(OC)cc(-c2cccc3cnccc23)c1` (configuration not stated) yielded an IC50 of 45 nM.

For `CCc1nc(N)nc(N)c1C#CCc1cc(OC)cc(-c2ccc3c(c2)OCCO3)c1`, 140 nM corresponded to half-maximal inhibition (IC50).

`CCc1nc(N)nc(N)c1C#CC(C)c1cc(OC)cc(N2CCOCC2)c1` (configuration not stated): half-maximal inhibition (IC50) was put at 250 nM.

On to `CCc1nc(N)nc(N)c1C#CC(C)c1cc(OC)cc(-c2ccc3c(c2)OCCO3)c1` (configuration not stated), for which the IC50 came to 260 nM.

`CCc1nc(N)nc(N)c1C#CCc1cc(OC)cc(-c2cccc3cnccc23)c1` returned an IC50 of 60 nM.

Tested on in a further test: not listed separately
The experiment in a line: Selectivity ratio of IC50 for human DHFR to Candida albicans DHFR.
Take `CCc1nc(N)nc(N)c1C#CC(C)c1cc(OC)cc(-c2cccc3cnccc23)c1` (configuration not stated): the Ratio IC50 came out at 2.6.

On to `CCc1nc(N)nc(N)c1C#CCc1cc(OC)cc(-c2ccc3c(c2)OCCO3)c1`, for which the Ratio IC50 worked out at 1.8.

`CCc1nc(N)nc(N)c1C#CC(C)c1cc(OC)cc(N2CCOCC2)c1` (configuration not stated): the Ratio IC50 turned out to be 11.

In the case of `COc1cc(-c2ccncc2)cc(C(C)C#Cc2c(C)nc(N)nc2N)c1` (configuration not stated), the Ratio IC50 was determined as 25.

Take `COc1cc(C(C)C#Cc2c(C)nc(N)nc2N)cc(N2CCOCC2)c1` (configuration not stated): the Ratio IC50 came out at 19.

On to `CCc1nc(N)nc(N)c1C#CC(C)c1cc(OC)cc(-c2ccc3c(c2)OCCO3)c1` (configuration not stated), for which the Ratio IC50 was 11.

With `COc1cc(C(C)(C)C#Cc2c(C)nc(N)nc2N)cc(OC)c1OC`, the Ratio IC50 worked out at 9.

With `CCc1nc(N)nc(N)c1C#CCc1cc(OC)cc(-c2cccc3cnccc23)c1`, the Ratio IC50 came out at 0.84.

In the case of `CCc1nc(N)nc(N)c1C#CC(C)c1cc(OC)cc(-c2ccncc2)c1` (configuration not stated), the Ratio IC50 stood at 22.

Tested on in a further test: not listed separately
The experiment in a line: Inhibition of Candida glabrata DHFR. On the set-up: species or system Nakaseomyces glabratus.
`CCc1nc(N)nc(N)c1C#CC(C)c1cc(OC)cc(-c2cccc3cnccc23)c1` (configuration not stated) showed an IC50 of 11 nM.

In turn, `CCc1nc(N)nc(N)c1C#CCc1cc(OC)ccc1OC` registered an IC50 of 8.2 nM.

In the case of `CCc1nc(N)nc(N)c1C#CCc1cc(OC)cc(-c2ccc3c(c2)OCCO3)c1`, the concentration for half-maximal inhibition (IC50) was found to be 19 nM.

As to `CCc1nc(N)nc(N)c1C#CC(C)c1cc(OC)cc(N2CCOCC2)c1` (configuration not stated), the midpoint of inhibition, the IC50, lay at 22 nM.

In turn, `COc1cc(-c2ccncc2)cc(C(C)C#Cc2c(C)nc(N)nc2N)c1` (configuration not stated) came in with an IC50 of 97 nM.

In turn, `COc1cc(-c2ccc(C)cc2)cc(C(C)C#Cc2c(C)nc(N)nc2N)c1` (configuration not stated) came in with an IC50 of 0.6 nM.

`COc1cc(C(C)C#Cc2c(C)nc(N)nc2N)cc(N2CCOCC2)c1` (configuration not stated) yielded an IC50 of 20 nM.

`CCc1nc(N)nc(N)c1C#CC(C)c1cc(OC)cc(-c2ccc3c(c2)OCCO3)c1` (configuration not stated) displayed an IC50 of 18 nM.

For `COc1cc(C(C)(C)C#Cc2c(C)nc(N)nc2N)cc(OC)c1OC`, the 50% inhibitory concentration (IC50) stood at 11 nM.

Compound `CCc1nc(N)nc(N)c1C#CCc1cc(OC)cc(-c2cccc3cnccc23)c1` showed a half-inhibitory concentration (IC50) of 16 nM.

In turn, `CCc1nc(N)nc(N)c1C#CC(C)c1cc(OC)cc(-c2ccncc2)c1` (configuration not stated) yielded an IC50 of 89 nM.

Another test deals with Candida albicans. The experiment in a line: Antifungal activity against Candida albicans. The class given is functional.
As a reminder, the MIC is the least concentration at which growth counts as inhibited. On to `COc1cc(-c2ccc(C)cc2)cc(C(C)C#Cc2c(C)nc(N)nc2N)c1` (configuration not stated), for which the minimum inhibitory concentration (MIC) turned out to be 1.5 µg/mL (≈ 4.03 µM).

In a further test the target is T3, Dihydrofolate reductase (Candida albicans, UniProt P22906).
T3 sequence (P22906 whole entry): T1 sequence (whole entry)
Description: Inhibition of Candida albicans DHFR.
`CCc1nc(N)nc(N)c1C#CC(C)c1cc(OC)cc(-c2cccc3cnccc23)c1` (configuration not stated) registered an IC50 of 17 nM.

Turning to `CCc1nc(N)nc(N)c1C#CCc1cc(OC)cc(-c2ccc3c(c2)OCCO3)c1`, it took 78 nM to reach half-maximal inhibition (IC50).

`CCc1nc(N)nc(N)c1C#CC(C)c1cc(OC)cc(N2CCOCC2)c1` (configuration not stated) showed an IC50 of 23 nM.

For `COc1cc(-c2ccncc2)cc(C(C)C#Cc2c(C)nc(N)nc2N)c1` (configuration not stated), half-maximal inhibition (IC50) was put at 61 nM.

Compound `COc1cc(C(C)C#Cc2c(C)nc(N)nc2N)cc(N2CCOCC2)c1` (configuration not stated) came in with an IC50 of 21 nM.

In turn, `CCc1nc(N)nc(N)c1C#CC(C)c1cc(OC)cc(-c2ccc3c(c2)OCCO3)c1` (configuration not stated) displayed a concentration for half-maximal inhibition (IC50) of 23 nM.

In turn, `COc1cc(C(C)(C)C#Cc2c(C)nc(N)nc2N)cc(OC)c1OC` came in with an IC50 of 33 nM.

Take `CCc1nc(N)nc(N)c1C#CCc1cc(OC)cc(-c2cccc3cnccc23)c1`: the IC50 was 71 nM.

With `CCc1nc(N)nc(N)c1C#CC(C)c1cc(OC)cc(-c2ccncc2)c1` (configuration not stated), the IC50 is 60 nM.

A further test concerns Nakaseomyces glabratus. Description: Antifungal activity against Candida glabrata. The class given is functional.
Compound `COc1cc(-c2ccc(C)cc2)cc(C(C)C#Cc2c(C)nc(N)nc2N)c1` (configuration not stated) returned a minimum inhibitory concentration (MIC) of 1.5 µg/mL (≈ 4.03 µM).
